From US4208424A, “Lipogenesis inhibition by certain esters of substituted benzodioxincarboxylic acids” (Shell Oil Company, priority 1979, dated 1980)

Test system: lipogenesis in swine adipose tissue
Assay: inhibition of lipogenesis (incorporation of radioactive glucose carbon into lipid) in swine adipose tissue slices
Type: cell-based
Details: 100 micrograms per milliliter, 37° C., 2 hours, glucose-U^14 C, insulin, 5% DMSO, triplicate
Text: The manner in which they cause this effect is not known with certainty; it is believed that they interfere with the synthesis of fatty acids in the tissues. Their effectiveness for this purpose has been ascertained by immersing samples of swine adipose tissue in a liquid medium containing radioactive glucose and the test chemical for a period of time, then isolating the lipid from the treated tissue and determining the incorporation of the radioactive carbon into lipid by means of scintillation counting techniques. These tests were conducted in swine adipose tissues because in swine, the primary site of lipogenesis--i.e., fatty acid synthesis--appears to be adipose tissue.
Described in more detail, the tests were conducted according to the following general procedure:
150 milligrams of slices of swine adipose tissue were incubated at 37° C. for 2 hours with shaking in 3 milliliters of Krebs-Ringer bicarbonate solution containing one-half the normal calcium ion concentration, 60 micromoles of glucose, 0.5 micro-Curie of glucose-U^14 C, and 300 microunits of insulin, and 5% dimethyl sulfoxide (DMSO). The test compounds were added as a solution or suspension in DMSO and were present at a concentration of 100 micrograms per milliliter of the incubation mixture.
The incubation was terminated by addition of 0.25 milliliter of 1 N sulfuric acid. The resulting mixture was extracted with a total of 25 milliliters of chloroform/methanol (2:1 v/v). The extracts were washed according to Folch et al. (J. Biol. Chem. 226, 497-509, (1957)), air dried, and counted in a liquid scintillation counter with 15 m milliliters of counting fluid (two parts toluene containing 0.4% w/v New England Nuclear Omnifluor/1 part Triton X-100). The tests were conducted in triplicate and were accompanied by control tests in which all ingredients,proportions and conditions were the same except that no test compound was included. From the data obtained were calculated the percent inhibition of lipid synthesis by the test compounds in each case. The data obtained from the tests are set out in Table 1, as the percent inhibition of lipogenesis compared to the results obtained in the control tests wherein only the test compound was omitted.

| Compound | Percent Inhibition (of lipogenesis compared to control tests) [%] |
| --- | --- |
| CCOC(=O)C1COc2ccccc2O1 (stereo not shown) [Compound 1, Ethyl 2,3-dihydro-1,4-benzodioxin-2-carboxylate] | 22 |
| CCOC(=O)C1COc2cc(C)c(C)cc2O1 (stereo not shown) [Compound 6, Ethyl 2,3-dihydro-6,7-dimethyl-1,4-benzodioxin-2-carboxylate] | 29 |
| CCOC(=O)C1COc2cc(-c3ccccc3)ccc2O1 (stereo not shown) [Compound 7, Ethyl 2,3-dihydro-6-phenyl-1,4-benzodioxin-2-carboxylate] | 21 |
| CCOC(=O)C1COc2ccc(-c3ccccc3)cc2O1 (stereo not shown) [Compound 8, Ethyl 2,3-dihydro-7-phenyl-1,4-benzodioxin-2-carboxylate] | 28 |
| CCOC(=O)C1COc2ccc(C(C)O)cc2O1 (stereo not shown) [Compound 9, Ethyl 2,3-dihydro-7-(1-hydroxyethyl)-1,4-benzodioxin-2-carboxylate] | 90 |
| Ethyl 2,3-dihydro-6(and 7)-fluoro-1,4-benzodioxin-2-carboxylate [Compound 3] | 48 |
| Ethyl 2,3-dihydro-6(and 7)-methoxy-1,4-benzodioxin-2-carboxylate [Compound 10] | 85 |
| Ethyl 2,3-dihydro-6(and 7)-methyl-1,4-benzodioxin-2-carboxylate [Compound 2] | 30 |
| Ethyl 2,3-dihydro-8(and 5)-methoxy-1,4-benzodioxin-2-carboxylate [Compound 5] | 86 |
| Ethyl 6(and 7)-bromo-2,3-dihydro-1,4-benzodioxin-2-carboxylate [Compound 4] | 43 |
